{"source": "the NIST ThermoML archive (doi:10.1021/acs.jced.7b00585)", "details": "Crystal; visual observation", "note": "± gives the expanded uncertainty stated by the source."}
{"smiles": "CC1(C)COP(=O)(C(Nc2ccccc2)c2ccccc2)OC1", "note": "(stereo unspecified)", "values": [{"measurement": "Normal melting temperature", "value": "175 ± 2", "unit": "°C"}]}
